What was measured:
FLT3-driven cell lines = test: Cell-based studies, FLT3-driven cell lines overall; conditions: range over the FLT3 cell lines
Excerpt: Stable BaF3 populations expressing activated FLT3 were generated by retroviral spinfection with the appropriate mutated plasmid followed by selection and growth factor withdrawal as previously described. The BaF3 cell line was originally obtained from the laboratory of Charles Sawyers and has not been authenticated. MV411 and Molm14 cells were obtained from the laboratory of Scott Kogan and authenticated by Promega STR analysis in June 2013. All cell lines were mycoplasma-free. Cells were incubated with compounds for 48 hours and proliferation was assessed using CellTiter-Glo (Promega; Madison, WI) according to the manufacturer’s recommendation on a SpectraMax M3 microplate reader using SpectraMax Software (Molecular Devices; Sunnyvale, CA). All cell viability data shown is reflective of experiments performed a minimum of three times. […]
S13. […]
2013. […] Cells were incubated with compounds for 48 hours and proliferation was assessed using CellTiter -Glo (Promega; Madison, WI) according to the manufacturer’s recommendation on a SpectraMax M3 microplate reader using SpectraMax Software (Molecular Devices; Sunnyvale, CA). […]

FLT3 kinase = target: T1, FLT3 kinase (Homo sapiens, UniProt P36888); test: Mechanism of inhibition (pre-incubation time and ATP concentration), FLT3; type: biochemical
T1 construct: purchased Invitrogen
T1 sequence (P36888 27-993): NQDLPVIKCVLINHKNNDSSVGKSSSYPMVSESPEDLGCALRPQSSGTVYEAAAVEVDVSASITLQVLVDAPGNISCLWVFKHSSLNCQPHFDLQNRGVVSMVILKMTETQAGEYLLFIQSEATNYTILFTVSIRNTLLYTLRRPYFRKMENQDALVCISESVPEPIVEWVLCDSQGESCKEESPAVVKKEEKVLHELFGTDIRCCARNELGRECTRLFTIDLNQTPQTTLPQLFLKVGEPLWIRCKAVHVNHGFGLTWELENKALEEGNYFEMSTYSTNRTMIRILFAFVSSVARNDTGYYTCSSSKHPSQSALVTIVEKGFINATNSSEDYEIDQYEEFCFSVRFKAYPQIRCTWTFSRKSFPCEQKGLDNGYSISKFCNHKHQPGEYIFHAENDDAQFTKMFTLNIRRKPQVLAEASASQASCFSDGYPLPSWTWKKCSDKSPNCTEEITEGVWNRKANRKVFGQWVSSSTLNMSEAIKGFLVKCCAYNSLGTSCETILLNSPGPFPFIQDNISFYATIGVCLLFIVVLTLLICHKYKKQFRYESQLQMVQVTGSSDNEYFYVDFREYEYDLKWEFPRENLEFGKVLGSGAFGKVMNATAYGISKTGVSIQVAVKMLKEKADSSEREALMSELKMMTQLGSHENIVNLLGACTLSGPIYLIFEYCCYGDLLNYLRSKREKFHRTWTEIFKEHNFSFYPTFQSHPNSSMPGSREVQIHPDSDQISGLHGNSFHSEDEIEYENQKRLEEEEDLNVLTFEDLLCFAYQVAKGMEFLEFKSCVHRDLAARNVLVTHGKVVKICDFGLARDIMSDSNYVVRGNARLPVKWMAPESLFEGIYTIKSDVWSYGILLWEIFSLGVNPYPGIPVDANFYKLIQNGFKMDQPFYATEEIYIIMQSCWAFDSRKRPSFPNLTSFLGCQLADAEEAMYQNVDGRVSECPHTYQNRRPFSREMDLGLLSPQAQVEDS
Method: Compound 13a was pre-incubated with the FLT3 kinase at 1, 3, 5, 10, 20, 30, 50, and 90 minutes. After the pre-incubation, IC50 values at each incubation interval was determined according to the procedure outlined in section 4.3. In a separate experiment, compound 13a was pre-incubated with the FLT3 kinase for 60 minutes. […] To determine IC50 values at each concentration of ATP, the same procedure was followed as outlined in section S10.
S10. Biochemical Inhibition Assay:1,2 Kinase activity was measured in a microfluidics assay that monitors the separation of a phosphorylated product from substrate. The assay was run using a 12-sipper chip on a Caliper EZ Reader II (PerkinElmer®, Walthman, USA) with separation buffer (100 mM HEPES, 10 mM EDTA, 0.015% Brij-35, 0.1% CR-3 [PerkinElmer®, Walthman, USA]). In 96-well polypropylene plates (Greiner, Frickenhausen, Germany) compound stocks (20 mM in DMSO) were diluted into kinase buffer (50 mM HEPES, 0.075% […]
dilutions (2 mM–6.32 nM). After, 1 μL was transferred into a 384-well polypropylene assay plate (Greiner, Frickenhausen, Germany). The FLT3 enzyme (Invitrogen™, Grand Island, USA) was diluted in kinase buffer to a concentration of 2 nM and 5 µL of the enzyme mixture was transferred to the assay plate. The inhibitors/FLT3 enzyme were incubated for 60 minutes with minor shaking. A substrate mix was prepared containing ATP (Ambresco®, Solon, USA) and 5FAM tagged FLT3 peptide (peptide #22, 5’ FAM-EPLYWSFPA, PerkinElmer®, Walthman, USA) dissolved in kinase buffer, and 5 µL of the substrate mix was added to the assay plate.
Running concentrations were as follows: ATP (190 µM), peptide (1.5 µM), compound 12-point ½log dilutions (0.2 mM–0.632 nM). For positive control, no inhibitor was added. For negative control, no enzyme was added. For running control, quizartinib was utilized. The plate was run until 10-20% conversion based on the positive control wells. The following separation conditions were utilized: upstream voltage -500V; downstream voltage, -1900V; chip pressure - 0.8. Percent inhibition was measured for each well comparing starting peptide to phosphorylated product peaks relative to the baseline. Dose response curves, spanning the IC50 dose, were generated in GraphPad Prisim 6 and fit to an exponential one-phase decay line and IC50 values were obtained from the half-life value of the curve. IC50 values were generated in duplicate and error was calculated from the standard deviation between values.
S11. Mechanism of Inhibition Procedure: Compound 13a was pre-incubated with the FLT3 kinase at 1, 3, 5, 10, 20, 30, 50, and 90 minutes. After the pre -incubation, IC50 values at each incubation interval was determined according to the procedure outlined in section 4.3. […]

## Cn1nc(C(C)(C)C)cc1NC(=O)Cc1ccc(Nc2cc(Nc3ccc(S(C)(=O)=O)cc3)ncn2)cc1 [13a, 2-(4-(6-(4-(Methylsulfonyl)phenylamino)pyrimidin-4-ylamino)phenyl)-N-(3-tert-butyl-1-methyl-1H-pyrazol-5-yl)acetamide]
FLT3-driven cell lines
  GI50: 0.009 to 2 µM
FLT3 kinase; 5-160 µM ATP, 60 minutes pre-incubation, p > 0.05
  effect of an increase in ATP concentration on FLT3 IC50: did not cause a statistically significant increase
FLT3 kinase; from pre-incubation and ATP variation studies
  mechanism of inhibition: non-competitive, Type-II kinase inhibitor
FLT3 kinase; p < 0.05
  change of FLT3 IC50 from no incubation to a 90-minute pre-incubation: statistically significant decrease
FLT3 kinase; pre-incubation 1-90 minutes
  pre-incubation required to reach maximal inhibition of the FLT3 kinase: approximately 60 minutes
